Values joined by “and” are separate entries in the source; they are usually repeats but may differ in a detail not shown here. Equal entries are not always repeated. Toxic doses and inconclusive results are not listed. No stated cut-off is given here; in the data, active means T/C of 150% or more; inactive means T/C below 125%.
Test system: L1210 leukemia ip in BDF1 mice, survival T/C
Assay: NCI In Vivo Anticancer Drug Screen. Data for tumor model L1210 Leukemia (intraperitoneal) in B6D2F1 (BDF1) mice
Conditions: endpoint: mean survival time, higher = longer survival
Method in brief: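 In this screen, tumor-bearing mice given compound are compared to those given vehicle, and their survival values are reported as a treated-to-control quotient.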

[1] = dose: 100.0 mg/kg/injection, schedule: Q04DX003 (ip), vehicle: Klucel (hydroxypropylcellulose) (HPC)
[2] = dose: 200.0 mg/kg/injection, schedule: Q04DX003 (ip), vehicle: Klucel (hydroxypropylcellulose) (HPC)
[3] = dose: 400.0 mg/kg/injection, schedule: Q04DX003 (ip), vehicle: Klucel (hydroxypropylcellulose) (HPC)
[4] = dose: 100.0 mg/kg/injection, schedule: Q01DX009 (ip), vehicle: Klucel (hydroxypropylcellulose) (HPC)
[5] = dose: 100.0 mg/kg/injection, schedule: Q04DX003 (ip), vehicle: saline
[6] = dose: 200.0 mg/kg/injection, schedule: Q01DX009 (ip), vehicle: Klucel (hydroxypropylcellulose) (HPC)
[7] = dose: 200.0 mg/kg/injection, schedule: Q04DX003 (ip), vehicle: saline
[8] = dose: 400.0 mg/kg/injection, schedule: Q01DX009 (ip), vehicle: Klucel (hydroxypropylcellulose) (HPC)
[9] = dose: 50.0 mg/kg/injection, schedule: Q01DX001 (ip), vehicle: saline
[10] = dose: 100.0 mg/kg/injection, schedule: Q01DX001 (ip), vehicle: saline
[11] = dose: 100.0 mg/kg/injection, schedule: Q01DX009 (ip), vehicle: saline with Tween-80
[12] = dose: 200.0 mg/kg/injection, schedule: Q01DX009 (ip), vehicle: saline with Tween-80
[13] = dose: 100.0 mg/kg/injection, schedule: Q04DX002 (ip), vehicle: Klucel (hydroxypropylcellulose) (HPC)
[14] = dose: 200.0 mg/kg/injection, schedule: Q04DX002 (ip), vehicle: Klucel (hydroxypropylcellulose) (HPC)
[15] = dose: 400.0 mg/kg/injection, schedule: Q04DX002 (ip), vehicle: Klucel (hydroxypropylcellulose) (HPC)
[16] = dose: 100.0 mg/kg/injection, schedule: Q04DX003 (ip), vehicle: saline with Tween-80
[17] = dose: 200.0 mg/kg/injection, schedule: Q04DX003 (ip), vehicle: saline with Tween-80
[18] = dose: 400.0 mg/kg/injection, schedule: Q04DX003 (ip), vehicle: saline with Tween-80
[19] = dose: 100.0 mg/kg/injection, schedule: Q01DX001 (ip), vehicle: saline with Tween-80
[20] = dose: 200.0 mg/kg/injection, schedule: Q01DX001 (ip), vehicle: saline with Tween-80
[21] = dose: 400.0 mg/kg/injection, schedule: Q01DX001 (ip), vehicle: saline with Tween-80

Measured: T/C

Nc1ccc(C(=O)O)c(Cl)c1
inactive: [1] 100 % of control | [2] 99 % of control | [3] 97 % of control

Cc1cccc(NC(=O)c2ccc(Cl)cc2)c1C
inactive: [4] 99 % of control | [5] 111 % of control | [6] 95 % of control | [7] 104 % of control | [8] 95 % of control | dose: 400.0 mg/kg/injection, schedule: Q04DX003 (ip), vehicle: saline 109 % of control

c1ccc(CNNC2=NCCN2)cc1
inactive: dose: 15.0 mg/kg/injection, schedule: Q01DX009 (ip), vehicle: saline 103 % of control | dose: 31.0 mg/kg/injection, schedule: Q01DX009 (ip), vehicle: saline 102 % of control | [9] 103 % of control | dose: 62.5 mg/kg/injection, schedule: Q01DX009 (ip), vehicle: saline 92 % of control | [10] 114 % of control

CNC(=O)N(C(C)C)C1CCCCC1
inactive: dose: 100.0 mg/kg/injection, schedule: Q04DX003 (ip), vehicle: other 102 % of control | dose: 200.0 mg/kg/injection, schedule: Q04DX003 (ip), vehicle: other 96 % of control

O=C1C(Br)=C(Br)C(=O)c2ccccc21
inactive: [9] 106 % of control | [10] 110 % of control

CSc1cc(C)n2nnnc2n1
inactive: dose: 12.5 mg/kg/injection, schedule: Q01DX001 (ip), vehicle: saline 100 % of control | dose: 25.0 mg/kg/injection, schedule: Q01DX001 (ip), vehicle: saline 96 % of control | [9] 100 % of control

CC12CCC(C1)C(C)(C)C2N1C(c2ccccc2)C1c1ccccc1 (centres undefined)
inactive: [4] 87 % of control | [6] 87 % of control | [8] 100 % of control

C=CC/C=C/C1CCCCC1
inactive: dose: 50.0 mg/kg/injection, schedule: Q01DX009 (ip), vehicle: saline with Tween-80 92 % of control | [11] 100 % of control | [12] 89 % of control

Cc1ccc2no[n+]([O-])c2c1
inactive: dose: 20.0 mg/kg/injection, schedule: Q01DX009 (ip), vehicle: Klucel (hydroxypropylcellulose) (HPC) 111 % of control | dose: 40.0 mg/kg/injection, schedule: Q01DX009 (ip), vehicle: Klucel (hydroxypropylcellulose) (HPC) 108 % of control

O=C1c2cccc(S(=O)(=O)O)c2C(=O)c2cccc([N+](=O)[O-])c21
inactive: [1] 98 % of control | [2] 91 % of control | [3] 94 % of control

CCCNC(=O)Oc1cccc(C)c1
inactive: [13] 100 % of control | [14] 106 % of control | [15] 110 % of control

c1ccc2cc(-c3nc4cccc5c4n3CCC5)ccc2c1
inactive: [11] 97 % of control | [16] 92 % of control | [12] 95 % of control | [17] 89 % of control | dose: 400.0 mg/kg/injection, schedule: Q01DX009 (ip), vehicle: saline with Tween-80 98 % of control | [18] 94 % of control

Nc1nc(N)nc(-c2ccccc2NC(=O)c2ccccc2N)n1
inactive: [4] 95 % of control | [1] 103 % of control | [6] 91 % of control | [2] 101 % of control | [8] 101 % of control | [3] 95 % of control

CCCC1COCC(CC)/C1=N\Nc1ccc([N+](=O)[O-])cc1[N+](=O)[O-] (centres undefined)
inactive: dose: 100.0 mg/kg/injection, schedule: Q01DX001 (ip), vehicle: Klucel (hydroxypropylcellulose) (HPC) 91 % of control | dose: 200.0 mg/kg/injection, schedule: Q01DX001 (ip), vehicle: Klucel (hydroxypropylcellulose) (HPC) 94 % of control | dose: 400.0 mg/kg/injection, schedule: Q01DX001 (ip), vehicle: Klucel (hydroxypropylcellulose) (HPC) 91 % of control

CCOC(=O)/C(C#N)=C\c1oc2cc(C)c(C)cc2c1C
inactive: [4] 103 % of control | [1] 106 % of control | [6] 99 % of control | [2] 101 % of control | [8] 94 % of control | [3] 98 % of control

O=C(Nc1cc(NC(=O)Nc2cccc(C3=NCCN3)c2)cc(C(=O)O)c1)Nc1cccc(C2=NCCN2)c1
inactive: dose: 15.0 mg/kg/injection, schedule: Q01DX Z (ip), vehicle: carboxymethylcellulose (CMC) 96 % of control | dose: 30.0 mg/kg/injection, schedule: Q01DX Z (ip), vehicle: carboxymethylcellulose (CMC) 96 % of control | dose: 60.0 mg/kg/injection, schedule: Q01DX Z (ip), vehicle: carboxymethylcellulose (CMC) 94 % of control | dose: 120.0 mg/kg/injection, schedule: Q01DX Z (ip), vehicle: carboxymethylcellulose (CMC) 100 % of control and 106 % of control | dose: 240.0 mg/kg/injection, schedule: Q01DX Z (ip), vehicle: carboxymethylcellulose (CMC) 104 % of control

Brc1ccc2[nH]c3c(c2c1)CSCC3
inactive: [19] 95 % of control | [20] 111 % of control | [21] 108 % of control

CCN(CC)CCN(CCN(CC)CC)c1ccc2ccccc2c1
inactive: dose: 75.0 mg/kg/injection, schedule: Q01DX001 (ip), vehicle: acetone 111 % of control

CCOC(=O)/C(C#N)=C1/CC2CCC1(C)OC2(C)C (centres undefined)
inactive: [1] 98 % of control | [2] 96 % of control | [3] 102 % of control

COCCOCC1CO1 (centres undefined)
inactive: dose: 100.0 mg/kg/injection, schedule: Q01DX009 (ip), vehicle: saline 100 % of control | dose: 200.0 mg/kg/injection, schedule: Q01DX009 (ip), vehicle: saline 105 % of control | dose: 400.0 mg/kg/injection, schedule: Q01DX009 (ip), vehicle: saline 100 % of control

Cc1ccc[n+]([O-])c1Cl
inactive: [5] 100 % of control | [7] 87 % of control

Nc1ccc(C(=O)O)cc1[N+](=O)[O-]
inactive: [13] 95 % of control | [14] 100 % of control | [15] 95 % of control

O=C(Nc1ccc(I)cc1)c1ccc([N+](=O)[O-])cc1
inactive: [13] 99 % of control | [14] 101 % of control | [15] 115 % of control

CCCP(=O)(CCC)C1CCCCC1
inactive: [19] 99 % of control | [20] 98 % of control | [21] 86 % of control

O=C(/C=C/C(=O)Oc1c(Cl)cc(Cl)cc1Cl)Oc1c(Cl)cc(Cl)cc1Cl
inactive: [4] 106 % of control | [1] 96 % of control | [16] 96 % of control | [6] 104 % of control | [2] 105 % of control | [17] 93 % of control | [8] 96 % of control | [3] 98 % of control | [18] 91 % of control

CCOC(=O)Nc1ccc(Cl)cc1Cl
inactive: [16] 97 % of control | [17] 105 % of control | [18] 87 % of control

Reference: PubChem BioAssay AID248 (DTP/NCI, 2004)
